Test results taken from ChEMBL document CHEMBL1123973, “Renin inhibitors containing hydrophilic groups. Tetrapeptides with enhanced aqueous solubility and nanomolar potency” (J Med Chem, 1988).
≈ marks a conversion by molar mass, not a printed value. *1 amine or outer side, *2 acyl side, *3 side chain or, on linkers, in order; H or OH if unused. Where a SMILES comes first, the peptide text is derived from it. [ ]: non-standard residue; d: D form. The star is where a group is joined. ξ: configuration not given here. Sta = CC(C)C[C@H](N)[C@@H](O)CC(=O)O; X1 = CC(C)CC(N[*:1])C(O)CC(=O)[*:2]; ξPhg = NC(C(=O)O)c1ccccc1; Boc = CC(C)(C)OC(=O)*; NHBn = c1ccc(CN*)cc1

Legend:
[1] = species on record: Sus scrofa; assay: Concentration required for 50% inhibition of porcine kidney renin at 10e-7 (nM) concentration
[2] = physchem; conditions: S
[3] = Partition coefficient (logD) (octanol/citric acid-phosphate buffer)
[4] = species on record: Sus scrofa; assay: Concentration required for 50% inhibition of porcine kidney renin at 10e-7 nM of the compound
[5] = test system: Renin (Canis lupus familiaris); assay: Concentration required for 50% inhibition of renin at 10e-6 M of the compound
[6] = physchem; conditions: phosphate buffer, pH 7.4, S
Description: Solubility (phosphate buffer, pH 7.4)

[7] = molecular target: T1, Renin (Homo sapiens) (UniProt P00797); assay: Concentration required for 50% inhibition of human plasma renin at 10e-6 nM of the compound; format: cell-free
T1 sequence (whole entry): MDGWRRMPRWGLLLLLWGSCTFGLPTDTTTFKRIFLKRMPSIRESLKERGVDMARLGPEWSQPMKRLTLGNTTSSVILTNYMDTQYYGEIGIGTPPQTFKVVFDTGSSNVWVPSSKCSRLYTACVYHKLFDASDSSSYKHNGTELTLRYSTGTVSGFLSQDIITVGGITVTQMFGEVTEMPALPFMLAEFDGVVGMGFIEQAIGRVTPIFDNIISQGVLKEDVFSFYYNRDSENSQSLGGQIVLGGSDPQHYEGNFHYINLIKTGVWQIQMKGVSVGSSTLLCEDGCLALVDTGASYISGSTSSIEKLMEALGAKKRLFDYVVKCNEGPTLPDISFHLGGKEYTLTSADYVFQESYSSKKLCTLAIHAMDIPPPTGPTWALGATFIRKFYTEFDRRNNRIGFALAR

[8] = molecular target: Renin (Sus scrofa); assay: Inhibition of porcine kidney renin
[9] = molecular target: T2, Renin (Homo sapiens, UniProt P00797); assay: Concentration required for 50% inhibition of human plasma renin; format: cell-free
T2 sequence (P00797 whole entry): T1 sequence (whole entry)

[10] = molecular target: Renin (Canis lupus familiaris); assay: Inhibition of renin
[11] = test system: Renin (Canis lupus familiaris); assay: Concentration required for 50% inhibition of renin; 10e-6 (nM)
[12] = species on record: Sus scrofa; assay: Concentration required for 50% inhibition of porcine kidney renin at 10e-6 (nM) concentration
[13] = buffer, pH 7.4
Description: Solubility (phosphate buffer, pH 7.4)

[14] = species on record: Sus scrofa; assay: Concentration required for 50% inhibition of porcine kidney renin at 10e-7 nM concentration
[15] = test system: Renin (Canis lupus familiaris); assay: Concentration required for 50% inhibition of renin at 10e-6 nM concentration
[16] = species on record: Sus scrofa; assay: Concentration required for 50% inhibition of porcine kidney renin; format: functional

Compound | solubility [2] [µM] | logD [3] | solubility [6] [µM] | further results
CC(C)CC(NC(=O)[C@H](Cc1c[nH]cn1)NC(=O)[C@H](Cc1ccccc1)NC(=O)OC(C)(C)C)C(O)CC(=O)N[C@@H](CC(C)C)C(=O)NCc1cc[n+]([O-])cc1 (some centres not stated) |  |  |  | inhibition [1]: 29%
CC(C)CC(NC(=O)[C@H](Cc1c[nH]cn1)NC(=O)[C@H](Cc1ccccc1)NC(=O)OC(C)(C)C)C(O)CC(=O)N[C@@H](CC(C)C)C(=O)NC(C(=O)O)c1ccccc1 (some centres not stated) (Boc-FH[X1]L[ξPhg]-OH) | 740 (≈ 596 µg/mL) | 1.22 | 2200 (≈ 1770 µg/mL) | inhibition [4]: 0%; inhibition [5]: 45%; inhibition [7]: 44%
CC(C)CC(NC(=O)[C@H](Cc1cnc[nH]1)NC(=O)[C@H](Cc1ccccc1)NC(=O)OC(C)(C)C)C(O)CC(=O)N[C@@H](CC(C)C)C(=O)NCc1cccc(CN)c1 (some centres not stated) | 880 (≈ 696 µg/mL) | 1.89 | 1400 (≈ 1110 µg/mL) | IC50 [8]: 54 nM; IC50 [9]: 9 nM; IC50 [10]: 110 nM
CC(C)CC(NC(=O)[C@H](Cc1cnc[nH]1)NC(=O)[C@H](Cc1ccccc1)NC(=O)OC(C)(C)C)C(O)CC(=O)N[C@@H](CC(C)C)C(=O)NCCN (some centres not stated) | 2600 (≈ 1860 µg/mL) | 0.949 | 4900 (≈ 3500 µg/mL) | IC50 [9]: 140 nM
CC(C)CC(NC(=O)[C@H](Cc1c[nH]cn1)NC(=O)[C@H](Cc1ccccc1)NC(=O)OC(C)(C)C)C(O)CC(=O)N[C@@H](CC(C)C)C(=O)NCCN (some centres not stated) |  |  |  | inhibition [11]: 32%; inhibition [12]: 31%
CC(C)CC(NC(=O)[C@H](Cc1c[nH]cn1)NC(=O)[C@H](Cc1ccccc1)NC(=O)OC(C)(C)C)C(O)CC(=O)N[C@@H](CC(C)C)C(=O)NCCC(N)C(=O)O (stereo in doubt; 17) [listing 1 of 2 here] | 3400 (≈ 2630 µg/mL) | 1.03 |  | S [13]: 1400 µM
CC(C)C[C@H](NC(=O)CC(O)C(CC1CCCCC1)NC(=O)[C@H](Cc1cnc[nH]1)NC(=O)[C@H](Cc1ccccc1)NC(=O)OC(C)(C)C)C(=O)NCc1ccncc1 (some centres not stated) |  | > 2 | < 10 | 
CC(C)CC(NC(=O)[C@H](Cc1c[nH]cn1)NC(=O)[C@H](Cc1ccccc1)NC(=O)OC(C)(C)C)C(O)CC(=O)N[C@@H](CC(C)C)C(=O)NCC(N)c1ccccn1 (some centres not stated) | 890 (≈ 705 µg/mL) | > 2 | 400 (≈ 317 µg/mL) | 
CC(C)C[C@H](NC(=O)C[C@H](O)[C@H](CC(C)C)NC(=O)[C@H](Cc1c[nH]cn1)NC(=O)[C@H](Cc1ccccc1)NC(=O)OC(C)(C)C)C(=O)NCc1ccccc1 (Boc-FH[Sta]L-NHBn) | < 10 | > 2 | < 10 | 
CC(C)CC(NC(=O)[C@H](Cc1c[nH]cn1)NC(=O)[C@H](Cc1ccccc1)NC(=O)OC(C)(C)C)C(O)CC(=O)N[C@@H](CC(C)C)C(=O)NCCC(N)C(=O)O (stereo in doubt; 17) [listing 2 of 2 here] |  |  |  | inhibition [11]: 22%; inhibition [12]: 0%; inhibition [7]: 8%
CC(C)CC(NC(=O)[C@H](Cc1c[nH]cn1)NC(=O)[C@H](Cc1ccccc1)NC(=O)OC(C)(C)C)C(O)CC(=O)N[C@@H](CC(C)C)C(=O)NC(Cc1cccc(CN)c1)C(=O)O (some centres not stated) | 390 (≈ 331 µg/mL) | 1.83 | 1500 (≈ 1270 µg/mL) | inhibition [14]: 0%; IC50 [9]: 880 nM; inhibition [15]: 18%
CC(C)CC(NC(=O)[C@H](Cc1c[nH]cn1)NC(=O)[C@H](Cc1ccccc1)NC(=O)OC(C)(C)C)C(O)CC(=O)N[C@@H](CC(C)C)C(=O)NCCN=C(N)N (some centres not stated) | 24000 (≈ 18200 µg/mL) | 0.322 | 11000 (≈ 8330 µg/mL) | IC50 [8]: 710 nM; inhibition [5]: 32%; IC50 [9]: 64 nM
CC(C)C[C@H](NC(=O)CC(O)C(CC1CCCCC1)NC(=O)[C@H](Cc1cnc[nH]1)NC(=O)[C@H](Cc1ccccc1)NC(=O)OC(C)(C)C)C(=O)NCc1cccc(OCC(=O)O)c1 (some centres not stated) | 30 (≈ 26.3 µg/mL) | > 2 | 210 (≈ 184 µg/mL) | 
CC(C)CC(NC(=O)[C@H](Cc1c[nH]cn1)NC(=O)[C@H](Cc1ccccc1)NC(=O)OC(C)(C)C)C(O)CC(=O)N[C@@H](CC(C)C)C(=O)N1CCN(Cc2ccccc2)CC1 (some centres not stated) | < 10 | > 2 | < 10 | IC50 [8]: 280 nM; IC50 [9]: 127 nM; IC50 [10]: 310 nM
CC(C)C[C@H](NC(=O)C[C@H](O)[C@H](CC(C)C)NC(=O)[C@H](Cc1c[nH]cn1)NC(=O)[C@H](Cc1ccccc1)NC(=O)OC(C)(C)C)C(=O)N[C@@H](Cc1ccccc1)C(N)=O (Boc-FH[Sta]LF-NH2) | < 20 | > 2 | < 20 | 
CC(C)CC(NC(=O)[C@H](Cc1cnc[nH]1)NC(=O)[C@H](Cc1ccccc1)NC(=O)OC(C)(C)C)C(O)CC(=O)N[C@@H](CC(C)C)C(=O)NCc1cc[n+]([O-])cc1 (some centres not stated) | 6500 (≈ 5060 µg/mL) |  | 4200 (≈ 3270 µg/mL) | 
CC(C)CC(NC(=O)[C@H](Cc1cnc[nH]1)NC(=O)[C@H](Cc1ccccc1)NC(=O)OC(C)(C)C)C(O)CC(=O)N[C@@H](CC(C)C)C(=O)NCc1cccc(OCC(=O)O)c1 (some centres not stated) | 270 (≈ 226 µg/mL) | > 2 | 1800 (≈ 1500 µg/mL) | 
CC(C)CC(NC(=O)[C@H](Cc1cnc[nH]1)NC(=O)[C@H](Cc1ccccc1)NC(=O)OC(C)(C)C)C(O)CC(=O)N[C@@H](CC(C)C)C(=O)NCCCN(CCO)CCO (some centres not stated) | 960 (≈ 784 µg/mL) | 1.4 | 4300 (≈ 3510 µg/mL) | IC50 [16]: 900 nM; IC50 [9]: 170 nM
CC(C)CC(NC(=O)[C@H](Cc1c[nH]cn1)NC(=O)[C@H](Cc1ccccc1)NC(=O)OC(C)(C)C)C(O)CC(=O)N[C@@H](CC(C)C)C(=O)NCc1ccncc1 (some centres not stated) | 440 (≈ 336 µg/mL) | > 2 | 340 (≈ 259 µg/mL) | 
CC(C)CC(NC(=O)[C@H](Cc1cnc[nH]1)NC(=O)[C@H](Cc1ccccc1)NC(=O)OC(C)(C)C)C(O)CC(=O)N[C@@H](CC(C)C)C(=O)NCc1cccc(CN=C(N)N)c1 (some centres not stated) | 3000 (≈ 2500 µg/mL) | 1.03 | 930 (≈ 775 µg/mL) | 
CC(C)CC(NC(=O)[C@H](Cc1c[nH]cn1)NC(=O)[C@H](Cc1ccccc1)NC(=O)OC(C)(C)C)C(O)CC(=O)N[C@@H](CC(C)C)C(=O)NCc1ccccn1 (some centres not stated) | 380 (≈ 290 µg/mL) | > 2 | 180 (≈ 137 µg/mL) | 
CC(C)CC(NC(=O)[C@H](Cc1c[nH]cn1)NC(=O)[C@H](Cc1ccccc1)NC(=O)OC(C)(C)C)C(O)CC(=O)N[C@@H](CC(C)C)C(=O)NCCC(N)C(=O)O (stereo in doubt; 16) |  |  |  | inhibition [4]: 0%; inhibition [5]: 15%; inhibition [7]: 25%
CC(C)C[C@H](NC(=O)CC(O)C(CC1CCCCC1)NC(=O)[C@H](Cc1c[nH]cn1)NC(=O)[C@H](Cc1ccccc1)NC(=O)OC(C)(C)C)C(=O)NCc1cccc(CN=C(N)N)c1 (some centres not stated) | > 250 | > 2 | 40 (≈ 34.9 µg/mL) | 
